{"source": "patent US7759337B2", "about": "“Phthalazine compounds and methods of use” (Amgen Inc., priority 2005, dated 2010)"}
{"test_system": "production of TNF by monocytes activated with bacterial lipopolysaccharide (LPS)", "test": "Lipopolysaccharide-activated monocyte TNF production assay", "format": "cell-based", "details": "Homo sapiens; whole blood monocyte assay (LPS induced TNF release)", "method_in_brief": "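Adherent human PBMC-derived monocytes preincubated 60 min with nine two-fold compound dilutions, then stimulated with E. coli K532 LPS (30 ng/mL in the added medium) for 4 h at 37 °C. Supernatant TNF measured by sandwich ELISA; IC50 is the compound concentration halving TNF production, from second-order polynomial fits.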", "units": {"IC50": "µM"}}
{"smiles": "Cc1ccc(C(=O)NC2CC2)cc1-c1ccc2c(N3CCCC[C@H]3C)nncc2c1", "note": "[Example 180, N-cyclopropyl-4-methyl-3-{1-[(2R)-2-methylpiperidin-1-yl]phthalazin-6-yl}benzamide]", "IC50": "≤ 5"}
{"smiles": "CNC(=O)c1ccc(C)c(-c2ccc3c(N4CCOCC4)nncc3c2)c1", "note": "[Example 181, N,4-dimethyl-3-(1-morpholin-4-ylphthalazin-6-yl)benzamide]", "IC50": "≤ 5"}
{"smiles": "Cc1ccc(C(N)=O)cc1-c1ccc2c(N3CCCC[C@H]3C)nncc2c1", "note": "[Example 182, 4-methyl-3-{1-[(2R)-2-methylpiperidin-1-yl]phthalazin-6-yl}benzamide]", "IC50": "≤ 5"}
{"smiles": "Cc1ccc(C(=O)NC2CC2)cc1-c1ccc2c(NCCN(C)C)nncc2c1", "note": "[Example 183, N-cyclopropyl-3-(1-{[2-(dimethylamino)ethyl]amino}phthalazin-6-yl)-4-methylbenzamide]", "IC50": "≤ 5"}
{"smiles": "Cc1ccc(C(N)=O)cc1-c1ccc2c(N3CCOC[C@@H]3C)nncc2c1", "note": "[Example 184, 4-methyl-3-{1-[(3S)-3-methylmorpholin-4-yl]phthalazin-6-yl}benzamide]", "IC50": "≤ 5"}
{"smiles": "Cc1ccc(C(N)=O)cc1-c1ccc2c(N[C@H](C)CO)nncc2c1", "note": "[Example 185, 3-(1-{[(1R)-2-hydroxy-1-methylethyl]amino}phthalazin-6-yl)-4-methylbenzamide]", "IC50": "≤ 5"}
{"smiles": "CCN(CC)CCNc1nncc2cc(-c3cc(C(=O)NC4CC4)ccc3C)ccc12", "note": "[Example 186, N-cyclopropyl-3-(1-{[2-(diethylamino)ethyl]amino}phthalazin-6-yl)-4-methylbenzamide]", "IC50": "≤ 5"}
{"smiles": "Cc1ccc(C(=O)NC2CC2)cc1-c1ccc2c(N(C)C)nncc2c1", "note": "[Example 187, N-cyclopropyl-3-[1-(dimethylamino)phthalazin-6-yl]-4-methylbenzamide]", "IC50": "≤ 5"}
{"smiles": "COCCN(C)c1nncc2cc(-c3cc(C(=O)NC4CC4)ccc3C)ccc12", "note": "[Example 188, N-cyclopropyl-3-{1-[(2-methoxyethyl)(methyl)amino]phthalazin-6-yl}-4-methylbenzamide]", "IC50": "≤ 5"}
{"smiles": "COCCNc1nncc2cc(-c3cc(C(N)=O)ccc3C)ccc12", "note": "[Example 189, 3-{1-[(2-methoxyethyl)amino]phthalazin-6-yl}-4-methylbenzamide]", "IC50": "≤ 5"}
{"smiles": "COC[C@H](C)Nc1nncc2cc(-c3cc(C(N)=O)ccc3C)ccc12", "note": "[Example 190, 3-(1-{[(1S)-2-methoxy-1-methylethyl]amino}phthalazin-6-yl)-4-methylbenzamide]", "IC50": "≤ 5"}
{"smiles": "Cc1ccc(C(=O)NC2CC2)cc1-c1ccc2c(N[C@@H](C)C(=O)OC(C)(C)C)nncc2c1", "note": "[Example 191, tert-butyl N-(6-{5-[(cyclopropylamino)carbonyl]-2-methylphenyl}phthalazin-1-yl)-L-alaninate]", "IC50": "≤ 5"}
{"smiles": "COC[C@H](C)Nc1nncc2cc(-c3cc(C(=O)NC4CC4)ccc3C)ccc12", "note": "[Example 192, N-cyclopropyl-3-(1-{[(1S)-2-methoxy-1-methylethyl]amino}phthalazin-6-yl)-4-methylbenzamide]", "IC50": "≤ 5"}
{"smiles": "Cc1ccc(C(=O)NC2CC2)cc1-c1ccc2c(N[C@H](C)c3ccccc3)nncc2c1", "note": "[Example 193, N-cyclopropyl-4-methyl-3-(1-{[(1R)-1-phenylethyl]amino}phthalazin-6-yl)benzamide]", "IC50": "≤ 5"}
{"smiles": "COCCNc1nncc2cc(-c3cc(C(=O)NC4CC4)ccc3C)ccc12", "note": "[Example 194, N-cyclopropyl-3-{1-[(2-methoxyethyl)amino]phthalazin-6-yl}-4-methylbenzamide]", "IC50": "≤ 5"}
{"smiles": "Cc1ccc(S(C)(=O)=O)cc1-c1ccc2c(N3CCOCC3)nncc2c1", "note": "[Example 195, 6-[2-methyl-5-(methylsulfonyl)phenyl]-1-morpholin-4-ylphthalazine]", "IC50": "≤ 5"}
{"smiles": "COc1ncncc1-c1nncc2cc(-c3cc(C(N)=O)ccc3C)ccc12", "note": "[Example 196, 3-[1-(4-methoxypyrimidin-5-yl)phthalazin-6-yl]-4-methylbenzamide]", "IC50": "≤ 5"}
